Measurements as given in patent US8304447B2, “2-acylaminopropoanol-type glucosylceramide synthase inhibitors” (Genzyme Corporation, priority 2007, dated 2012).

Test system: GM3
Assay: GM3 Elisa assay
Assay type: cell-based
Conditions: Table 3 (IC 50 Values); B16-FO cells; read-out: IC50_uM_Mean
Summary of the method: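 Cellular GM3 ELISA: fixed cells probed with monoclonal anti-GM3 (NeuAc), HRP-conjugated anti-IgM and fluorogenic Quantablu substrate, read at Ex 325/Em 420. Cells were B16-FO, treated 2 days after a 6 h attachment on collagen-coated wells.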

Row | IC50 | SMILES
1 | 3000 to 10000 nM | COc1ccc([C@@H](O)[C@@H](CO)NC(=O)OCc2ccccc2)c(OC)c1 [Compound 352]
2 | 100 to 1000 nM | COc1ccc(C(=O)CCCCC(=O)N[C@H](CN2CCCC2)[C@H](O)c2ccc(OC)cc2OC)cc1 [Compound 353]
3 | 100 to 1000 nM | COCCc1ccc([C@@H](O)[C@@H](CN2CCCC2)NC(=O)Cc2ccc(OC(F)(F)F)cc2)cc1 [Compound 354]
4 | 1000 to 3000 nM | COCCc1ccc([C@@H](O)[C@@H](CN2CCCC2)NC(=O)CCCC(=O)c2ccc(OC)cc2)cc1 [Compound 355]
5 | 1000 to 3000 nM | COCCc1ccc([C@@H](O)[C@@H](CN2CCCC2)NC(=O)CCOc2ccc(OC)cc2)cc1 [Compound 356]
6 | 100 to 1000 nM | COCCc1ccc([C@@H](O)[C@@H](CN2CCCC2)NC(=O)CCCCC(=O)c2ccc(OC)cc2)cc1 [Compound 357]
7 | ≤ 100 nM | COc1ccc(C(=O)CCCCCC(=O)N[C@H](CN2CCCC2)[C@H](O)c2ccc(Cl)s2)cc1 [Compound 358]
8 | 100 to 1000 nM | COc1ccc(C(=O)CCCC(=O)N[C@H](CN2CCCC2)[C@H](O)c2ccc(Cl)s2)cc1 [Compound 359]
9 | 100 to 1000 nM | CCCCCCCC(=O)N[C@H](CN1CCCC1)[C@H](O)c1sccc1C [Compound 360]
10 | 3000 to 10000 nM | COc1ccc(C(=O)CCCC(=O)N[C@H](CN2CCCC2)[C@H](O)c2sccc2C)cc1 [Compound 361]
11 | 3000 to 10000 nM | COc1ccc(C(=O)CCCCC(=O)N[C@H](CN2CCCC2)[C@H](O)c2sccc2C)cc1 [Compound 362]
12 | 100 to 1000 nM | COc1ccc(OCCC(=O)N[C@H](CN2CCCC2)[C@H](O)c2sccc2C)cc1 [Compound 363]
13 | ≤ 100 nM | COc1ccc(C(=O)CCCCC(=O)N[C@H](CN2CCCC2)[C@H](O)c2ccc(OCCOc3ccc(C#N)cc3)cc2)cc1 [Compound 364]
14 | ≤ 100 nM | COc1ccc(C(=O)CCCCC(=O)N[C@H](CN2CCCC2)[C@H](O)c2ccc(OCCOc3cccc(C(F)(F)F)c3)cc2)cc1 [Compound 365]
15 | ≤ 100 nM | COc1ccc(C(=O)CCCCC(=O)N[C@H](CN2CCCC2)[C@H](O)c2ccc(OCCOc3ccccc3F)cc2)cc1 [Compound 366]
16 | ≤ 100 nM | COc1ccc(C(=O)CCCCC(=O)N[C@H](CN2CCCC2)[C@H](O)c2ccc(OCCCOc3ccccc3F)cc2)cc1 [Compound 367]
17 | ≤ 100 nM | CCCCCCOc1ccc([C@@H](O)[C@@H](CN2CC[C@H](O)C2)NC(=O)CCCCC(=O)c2ccc(OC)cc2)cc1 [Compound 368]
18 | ≤ 100 nM | CCCCCCOc1ccc([C@@H](O)[C@@H](CN2CC[C@@H](F)C2)NC(=O)CCCCC(=O)c2ccc(OC)cc2)cc1 [Compound 369]
19 | ≤ 100 nM | CCCCCCOc1ccc([C@@H](O)[C@@H](CN2CC[C@@H](F)C2)NC(=O)CCCCCC(=O)c2ccc(OC)cc2)cc1 [Compound 371]
20 | ≤ 100 nM | CCCCCCOc1ccc([C@@H](O)[C@@H](CN2CC[C@H](O)C2)NC(=O)CCCCCC(=O)c2ccc(OC)cc2)cc1 [Compound 372]
21 | ≤ 100 nM | COc1ccc(C(=O)CCCCC(=O)N[C@H](CN2CCCC2)[C@H](O)c2ccc(OCCOc3c(C)cccc3C)cc2)cc1 [Compound 373]
22 | 100 to 1000 nM | COc1ccc(C(=O)CCCCC(=O)N[C@H](CN2CC[C@H](O)C2)[C@H](O)c2ccc(OC(C)C)cc2)cc1 [Compound 375]
23 | ≤ 100 nM | COc1ccc(C(=O)CCC(=O)CCC(=O)N[C@H](CN2CCCC2)[C@H](O)c2ccc3c(c2)OCCO3)cc1 [Compound 378]
24 | 100 to 1000 nM | O=C(N[C@H](CN1CCCC1)[C@H](O)c1ccc(Cl)cc1)OCc1ccccc1 [Compound 379]

Row | IC50 | SMILES
25 | ≤ 100 nM | COc1ccc(C(=O)CCCCCC(=O)N[C@H](CN2CCCC2)[C@H](O)c2ccc(Cl)cc2)cc1 [Compound 380]
26 | 1000 to 3000 nM | O=C(Cc1ccc(OC(F)(F)F)cc1)N[C@H](CN1CCCC1)[C@H](O)c1ccc(Cl)cc1 [Compound 381]
27 | 100 to 1000 nM | COc1ccc(OCCC(=O)N[C@H](CN2CCCC2)[C@H](O)c2ccc(Cl)cc2)cc1 [Compound 382]
28 | 100 to 1000 nM | COc1ccc(C(=O)CCCC(=O)N[C@H](CN2CCCC2)[C@H](O)c2ccc(Cl)cc2)cc1 [Compound 383]
29 | 100 to 1000 nM | COc1ccc(C(=O)CCCCC(=O)N[C@H](CN2CCCC2)[C@H](O)c2ccc(Cl)cc2)cc1 [Compound 384]
30 | 1000 to 3000 nM | CCCCCCCC(=O)N[C@H](CN1CCCC1)[C@H](O)c1ccc(Cl)cc1 [Compound 385]
31 | 100 to 1000 nM | COc1ccc(C(=O)CCCC(=O)N[C@H](CN2CCCC2)[C@H](O)c2ccc(OC)c(C)c2)cc1 [Compound 386]
32 | 100 to 1000 nM | COc1ccc(C(=O)CCCCC(=O)N[C@H](CN2CCCC2)[C@H](O)c2ccc(OC)c(C)c2)cc1 [Compound 387]
33 | ≤ 100 nM | CCCCCCCC(=O)N[C@H](CN1CCCC1)[C@H](O)c1ccc(OC)c(C)c1 [Compound 388]
34 | ≤ 100 nM | COc1ccc([C@@H](O)[C@@H](CN2CCCC2)NC(=O)Cc2ccc(OC(F)(F)F)cc2)cc1C [Compound 389]
35 | ≤ 100 nM | COc1ccc(C(=O)CCCCCC(=O)N[C@H](CN2CCCC2)[C@H](O)c2ccc(OC)c(C)c2)cc1 [Compound 390]
36 | 100 to 1000 nM | COc1ccc(OCCC(=O)N[C@H](CN2CCCC2)[C@H](O)c2ccc(OC)c(C)c2)cc1 [Compound 391]
37 | 3000 to 10000 nM | O=C(Cc1ccc(OC(F)(F)F)cc1)N[C@H](CN1CCCC1)[C@H](O)/C=C/c1ccccc1 [Compound 392]
38 | 3000 to 10000 nM | COc1ccc(C(=O)CCCC(=O)N[C@H](CN2CCCC2)[C@H](O)/C=C/c2ccccc2)cc1 [Compound 393]
39 | 1000 to 3000 nM | COc1ccc(C(=O)CCCCCC(=O)N[C@H](CN2CCCC2)[C@H](O)/C=C/c2ccccc2)cc1 [Compound 394]
40 | 3000 to 10000 nM | COc1ccc(C(=O)CCCCC(=O)N[C@H](CN2CCCC2)[C@H](O)/C=C/c2ccccc2)cc1 [Compound 395]
41 | 3000 to 10000 nM | COc1ccc(OCCC(=O)N[C@H](CN2CCCC2)[C@H](O)/C=C/c2ccccc2)cc1 [Compound 396]
42 | 3000 to 10000 nM | CCCCCCCC(=O)N[C@H](CN1CCCC1)[C@H](O)/C=C/c1ccccc1 [Compound 397]
43 | 3000 to 10000 nM | O=C(Cc1ccc(OC(F)(F)F)cc1)N[C@H](CN1CCCC1)[C@H](O)c1ccc2c(c1)OC(F)(F)C(F)(F)O2 [Compound 398]
44 | 1000 to 3000 nM | O=C(N[C@H](CN1CCCC1)[C@H](O)c1ccc2c(c1)OC(F)(F)C(F)(F)O2)OCc1ccccc1 [Compound 399]
45 | 3000 to 10000 nM | CCCCCCCC(=O)N[C@H](CN1CCCC1)[C@H](O)c1ccc2c(c1)OC(F)(F)C(F)(F)O2 [Compound 400]
46 | 100 to 1000 nM | COc1ccc(C(=O)CCCCCC(=O)N[C@H](CN2CCCC2)[C@H](O)c2ccc3c(c2)OC(F)(F)C(F)(F)O3)cc1 [Compound 401]
47 | 3000 to 10000 nM | COc1ccc(OCCC(=O)N[C@H](CN2CCCC2)[C@H](O)c2ccc3c(c2)OC(F)(F)C(F)(F)O3)cc1 [Compound 402]

Row | SMILES | IC50
48 | CCCCCCOc1ccc([C@@H](O)[C@@H](CN2C3CCC2CC3)NC(=O)CCCCC(=O)c2ccc(OC)cc2)cc1 [Compound 370] | ≤ 100 nM
49 | CCCCCCOc1ccc([C@@H](O)[C@@H](CN2C3CCC2CC3)NC(=O)CCCCCC(=O)c2ccc(OC)cc2)cc1 [Compound 374] | ≤ 100 nM
50 | COc1ccc(C(=O)CCCCC(=O)N[C@H](CN2C3CCC2CC3)[C@H](O)c2ccc(OC(C)C)cc2)cc1 [Compound 376] | ≤ 100 nM
51 | COc1ccc(C(=O)CCCCCC(=O)N[C@H](CN2C3CCC2CC3)[C@H](O)c2ccc(OC(C)C)cc2)cc1 [Compound 377] | ≤ 100 nM
